Measured values: US20180228804A1, “COMBINATION THERAPY OF HBV AND HDV INFECTION” (MYR GMBH, priority 2014, published 2018)

Legend:
HBV = settings: after two years of treatment; cited from earlier work
[1] = tested on: HepaRG cells infected with HBV/HDV containing serum; test: Number of HBcAg-positive HepaRG cells on day 6 post infection by HBcAg-specific IF, Myrcludex B with or without entecavir; type: cell-based; settings: immunochemistry

| SMILES | HBsAg seroconversion (HBV) | effect of entecavir on the inhibition of HBV receptor by Myrcludex B in vitro [1] |
| --- | --- | --- |
| C[C@H](Cn1cnc2c(N)ncnc21)OCP(=O)(O)O [tenofovir] | 4 % of patients |  |
| C=C1[C@H](CO)[C@@H](O)C[C@@H]1n1cnc2c(=O)[nH]c(N)nc21 [entecavir] |  | did not improve |
